# Test results as given in patent US20170008888A1 (KYORIN PHARMACEUTICAL CO., LTD., priority 2014, published 2017).
# Experiments:
# [1] = system: DNFB-induced ear inflammation mouse model; assay: DNFB-induced ear inflammation mouse model: cytokine concentrations in ear tissue; type: in vivo, mouse (Balb/c)
# Experimental: In vivo T-cell mediated immune response was examined in a mouse model of CHS using the hapten dinitrofluorobenzene (DNFB) as the induction agent. […] On Days 0 and 1 (sensitization), 20 μL of 0.5% v/v DNFB in acetone:olive oil (4:1) was applied to each hindpaw of 8 week old male mice (Balb/c, Charles River Laboratories; 10 mice per group unless otherwise noted). On Day 5 (elicitation) 10 μL of 0.2% v/v DNFB in acetone: olive oil (4:1) was applied to the dorsal surface of the right ear of each animal; 10 μL of acetone: olive oil (4:1) was applied to the dorsal surface of the left ear as control. Treatments were administered by group as indicated in the table below; on days when DNFB was used, the QD and the morning dose of BID as appropriate were administered 30 minutes-1 hr. prior to DNFB application. […] Approximately 24 hours after elicitation (Day 6), a 7 mm tissue punch from the central portion of both ears was collected and wet weights measured. The primary functional assessment was the difference in wet weights of the right (DNFB) vs. left (vehicle) ears compared to the vehicle treatment (Vehicle1-S) as an indicator of inflammation (Table 17). Ear tissue punches were flash frozen, stored at −70° C. and analyzed for cytokines (see below).
# Cytokine concentrations after DNFB induction and treatment were analyzed in the weighed and flash frozen tissues of the right (DNFB) and left (control) 7 mm ear punches. The ear tissues were stored at −70° C. until prepared for analysis as follows. Left or right ear tissues from the same treatment group were pooled and crushed with mortar and pestle under liquid nitrogen. Tissue representing 7-8 ear punches by weight was homogenized in Buffer A (50 mM HEPES pH 7.4, 100 mM NaCl) containing 1 tablet EDTA-free Protease Inhibitor (Thermo Fisher Scientific, Rockford, Ill.) per 10 mL, 1× Phosphatase Inhibitor Cocktail II (AG Scientific, San Diego, Calif.), and 1 mM PMSF (Sigma, St. Louis, Mo.). Homogenization was performed in Lysing Matrix D tubes (MP Biomedicals, Solon, Ohio), using the FastPrep-24 instrument (MP Biomedicals) at a speed setting of 6 for 4 cycles of 30 seconds, with cooling on ice in between cycles. The tubes were then centrifuged at 1,000×g for 10 min at 4° C. Supernatant was collected and briefly sonicated using the Microson probe sonicator at setting 3 (Misonix, Farmingdale, N.Y.) before centrifuging again at 10,000×g for 10 min at 4° C. The supernatant was ultracentrifuged at 100,000×g for 1 h at 4° C. in the Optima Max-E (Beckman Coulter, Indianapolis, Ind.) to separate soluble and membrane protein fractions. The soluble (supernatant) fraction was collected and protein concentrations determined using the Dc protein kit (Bio-Rad, Hercules, Calif.). Soluble ear proteins were analyzed in triplicate for cytokine response at a final protein concentration of 4 mg/ml using the Bio-Plex Pro Mouse Cytokine 23-Plex panel (Bio-Rad) as per manufacturer's protocols. Magnetic beads were read on the Bio-Plex MAGPIX multiplex reader instrument using the accompanying xPONENT 4.2 acquisition software (Bio-Rad Laboratories, Hercules, Calif.). Data were analyzed via the Bio-Plex Manager software v6.1 (Bio-Rad Laboratories). Response was calculated as a percentage of the cytokine concentrations measured in the right (DNFB) ears of vehicle 1 dosed (S regimen, i.e. dosed Day 0-5) mice (Table 18).
# BRD2 = target: T1, BRD2 (Homo sapiens, UniProt P25440); assay: Bromodomain binding assay: BRD2
# T1 construct: read out by qPCR of the phage DNA
# T1 sequence (P25440 whole entry): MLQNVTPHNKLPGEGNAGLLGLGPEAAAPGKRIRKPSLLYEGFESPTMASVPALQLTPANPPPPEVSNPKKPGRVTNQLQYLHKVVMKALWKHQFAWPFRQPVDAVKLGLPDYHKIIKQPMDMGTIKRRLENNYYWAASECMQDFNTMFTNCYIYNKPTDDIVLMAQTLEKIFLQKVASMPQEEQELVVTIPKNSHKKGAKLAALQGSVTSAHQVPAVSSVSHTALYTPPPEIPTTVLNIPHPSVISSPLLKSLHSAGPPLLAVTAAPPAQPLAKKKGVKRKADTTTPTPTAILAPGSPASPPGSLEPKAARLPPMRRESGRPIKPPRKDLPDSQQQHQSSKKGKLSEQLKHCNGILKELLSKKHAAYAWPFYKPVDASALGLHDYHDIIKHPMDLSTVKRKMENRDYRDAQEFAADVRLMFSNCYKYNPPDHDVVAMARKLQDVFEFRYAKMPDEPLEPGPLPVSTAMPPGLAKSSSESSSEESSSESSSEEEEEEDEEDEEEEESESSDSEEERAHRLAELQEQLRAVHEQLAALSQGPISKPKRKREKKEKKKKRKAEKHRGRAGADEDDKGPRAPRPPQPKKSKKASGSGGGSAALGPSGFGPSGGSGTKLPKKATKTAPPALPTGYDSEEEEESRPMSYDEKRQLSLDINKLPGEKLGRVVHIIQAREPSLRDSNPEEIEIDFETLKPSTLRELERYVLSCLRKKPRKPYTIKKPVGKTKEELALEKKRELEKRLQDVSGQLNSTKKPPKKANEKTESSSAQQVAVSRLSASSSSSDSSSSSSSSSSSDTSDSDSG
# Experimental: T7 phage strains displaying bromodomains were grown in parallel in 24-well blocks in an E. coli host derived from the BL21 strain. E. coli were grown to log-phase and infected with T7 phage from a frozen stock (multiplicity of infection=0.4) and incubated with shaking at 32° C. until lysis (90-150 minutes). The lysates were centrifuged (5,000×g) and filtered (0.2 μm) to remove cell debris. […] The liganded beads were blocked with excess biotin and washed with blocking buffer (SeaBlock (Pierce), 1% BSA, 0.05 Tween 20, 1 mM DTT) to remove unbound ligand and to reduce non-specific phage binding. […] Test compounds (T62 and 46) were prepared as 1000× stocks in 100% DMSO and subsequently diluted 1:10 in monoethylene glycol (MEG) to create stocks at 100× the screening concentration (resulting stock solution is 10% DMSO/90% MEG). The compounds were then diluted directly into the assays such that the final concentration of DMSO and MEG were 0.1% and 0.9%, respectively. All reactions were performed in polystyrene 96-well plates in a final volume of 0.135 ml. […] The bromodomain concentration in the eluates was measured by qPCR. Compounds were assayed for binding activity against a panel of 40 bromodomain-containing proteins.
compound,measurement,setting,value
CCOc1cc(C(=O)N2CCCN(C)CC2)ccc1Nc1cc2c(cn1)N(C)C(=O)c1ccccc1N2C [Compound 8],G-CSF: Mean % Cytokine Concentration in DNFB Treated Right Ears versus Vehicle 1-Dosed (S) Mice,"[1]; 25 mg/kg, regimen E",68%
same,GM-CSF: Mean % Cytokine Concentration in DNFB Treated Right Ears versus Vehicle 1-Dosed (S) Mice,"[1]; 25 mg/kg, regimen E",40%
same,IFN-γ: Mean % Cytokine Concentration in DNFB Treated Right Ears versus Vehicle 1-Dosed (S) Mice,"[1]; 25 mg/kg, regimen E",52%
same,IL-1α: Mean % Cytokine Concentration in DNFB Treated Right Ears versus Vehicle 1-Dosed (S) Mice,"[1]; 25 mg/kg, regimen E",88%
same,IL-1β: Mean % Cytokine Concentration in DNFB Treated Right Ears versus Vehicle 1-Dosed (S) Mice,"[1]; 25 mg/kg, regimen E",56%
same,IL-3: Mean % Cytokine Concentration in DNFB Treated Right Ears versus Vehicle 1-Dosed (S) Mice,"[1]; 25 mg/kg, regimen E",67%
same,IL-5: Mean % Cytokine Concentration in DNFB Treated Right Ears versus Vehicle 1-Dosed (S) Mice,"[1]; 25 mg/kg, regimen E",37%
same,IL-6: Mean % Cytokine Concentration in DNFB Treated Right Ears versus Vehicle 1-Dosed (S) Mice,"[1]; 25 mg/kg, regimen E",58%
same,IL-12 (p40): Mean % Cytokine Concentration in DNFB Treated Right Ears versus Vehicle 1-Dosed (S) Mice,"[1]; 25 mg/kg, regimen E",79%
same,IL-13: Mean % Cytokine Concentration in DNFB Treated Right Ears versus Vehicle 1-Dosed (S) Mice,"[1]; 25 mg/kg, regimen E",74%
same,IL-17A: Mean % Cytokine Concentration in DNFB Treated Right Ears versus Vehicle 1-Dosed (S) Mice,"[1]; 25 mg/kg, regimen E",69%
same,KC: Mean % Cytokine Concentration in DNFB Treated Right Ears versus Vehicle 1-Dosed (S) Mice,"[1]; 25 mg/kg, regimen E",39%
same,MCP-1: Mean % Cytokine Concentration in DNFB Treated Right Ears versus Vehicle 1-Dosed (S) Mice,"[1]; 25 mg/kg, regimen E",44%
same,MIP-1α: Mean % Cytokine Concentration in DNFB Treated Right Ears versus Vehicle 1-Dosed (S) Mice,"[1]; 25 mg/kg, regimen E",62%
same,MIP-1β: Mean % Cytokine Concentration in DNFB Treated Right Ears versus Vehicle 1-Dosed (S) Mice,"[1]; 25 mg/kg, regimen E",60%
same,RANTES: Mean % Cytokine Concentration in DNFB Treated Right Ears versus Vehicle 1-Dosed (S) Mice,"[1]; 25 mg/kg, regimen E",66%
same,TNF-α: Mean % Cytokine Concentration in DNFB Treated Right Ears versus Vehicle 1-Dosed (S) Mice,"[1]; 25 mg/kg, regimen E",53%
same,G-CSF: Mean % Cytokine Concentration in DNFB Treated Right Ears versus Vehicle 1-Dosed (S) Mice,"[1]; 60 mg/kg, regimen E",50%
same,GM-CSF: Mean % Cytokine Concentration in DNFB Treated Right Ears versus Vehicle 1-Dosed (S) Mice,"[1]; 60 mg/kg, regimen E",48%
same,IFN-γ: Mean % Cytokine Concentration in DNFB Treated Right Ears versus Vehicle 1-Dosed (S) Mice,"[1]; 60 mg/kg, regimen E",58%
same,IL-1α: Mean % Cytokine Concentration in DNFB Treated Right Ears versus Vehicle 1-Dosed (S) Mice,"[1]; 60 mg/kg, regimen E",188%
same,IL-1β: Mean % Cytokine Concentration in DNFB Treated Right Ears versus Vehicle 1-Dosed (S) Mice,"[1]; 60 mg/kg, regimen E",62%
same,IL-3: Mean % Cytokine Concentration in DNFB Treated Right Ears versus Vehicle 1-Dosed (S) Mice,"[1]; 60 mg/kg, regimen E",77%
same,IL-5: Mean % Cytokine Concentration in DNFB Treated Right Ears versus Vehicle 1-Dosed (S) Mice,"[1]; 60 mg/kg, regimen E",57%
same,IL-6: Mean % Cytokine Concentration in DNFB Treated Right Ears versus Vehicle 1-Dosed (S) Mice,"[1]; 60 mg/kg, regimen E",61%
same,IL-12 (p40): Mean % Cytokine Concentration in DNFB Treated Right Ears versus Vehicle 1-Dosed (S) Mice,"[1]; 60 mg/kg, regimen E",88%
same,IL-13: Mean % Cytokine Concentration in DNFB Treated Right Ears versus Vehicle 1-Dosed (S) Mice,"[1]; 60 mg/kg, regimen E",85%
same,IL-17A: Mean % Cytokine Concentration in DNFB Treated Right Ears versus Vehicle 1-Dosed (S) Mice,"[1]; 60 mg/kg, regimen E",68%
same,KC: Mean % Cytokine Concentration in DNFB Treated Right Ears versus Vehicle 1-Dosed (S) Mice,"[1]; 60 mg/kg, regimen E",29%
same,MCP-1: Mean % Cytokine Concentration in DNFB Treated Right Ears versus Vehicle 1-Dosed (S) Mice,"[1]; 60 mg/kg, regimen E",47%
same,MIP-1α: Mean % Cytokine Concentration in DNFB Treated Right Ears versus Vehicle 1-Dosed (S) Mice,"[1]; 60 mg/kg, regimen E",62%
same,MIP-1β: Mean % Cytokine Concentration in DNFB Treated Right Ears versus Vehicle 1-Dosed (S) Mice,"[1]; 60 mg/kg, regimen E",44%
same,RANTES: Mean % Cytokine Concentration in DNFB Treated Right Ears versus Vehicle 1-Dosed (S) Mice,"[1]; 60 mg/kg, regimen E",53%
same,TNF-α: Mean % Cytokine Concentration in DNFB Treated Right Ears versus Vehicle 1-Dosed (S) Mice,"[1]; 60 mg/kg, regimen E",81%
same,G-CSF: Mean % Cytokine Concentration in DNFB Treated Right Ears versus Vehicle 1-Dosed (S) Mice,"[1]; 60 mg/kg, regimen S",36%
same,GM-CSF: Mean % Cytokine Concentration in DNFB Treated Right Ears versus Vehicle 1-Dosed (S) Mice,"[1]; 60 mg/kg, regimen S",52%
same,IFN-γ: Mean % Cytokine Concentration in DNFB Treated Right Ears versus Vehicle 1-Dosed (S) Mice,"[1]; 60 mg/kg, regimen S",46%
same,IL-1α: Mean % Cytokine Concentration in DNFB Treated Right Ears versus Vehicle 1-Dosed (S) Mice,"[1]; 60 mg/kg, regimen S",136%
same,IL-1β: Mean % Cytokine Concentration in DNFB Treated Right Ears versus Vehicle 1-Dosed (S) Mice,"[1]; 60 mg/kg, regimen S",52%
same,IL-3: Mean % Cytokine Concentration in DNFB Treated Right Ears versus Vehicle 1-Dosed (S) Mice,"[1]; 60 mg/kg, regimen S",61%
same,IL-5: Mean % Cytokine Concentration in DNFB Treated Right Ears versus Vehicle 1-Dosed (S) Mice,"[1]; 60 mg/kg, regimen S",37%
same,IL-6: Mean % Cytokine Concentration in DNFB Treated Right Ears versus Vehicle 1-Dosed (S) Mice,"[1]; 60 mg/kg, regimen S",32%
same,IL-12 (p40): Mean % Cytokine Concentration in DNFB Treated Right Ears versus Vehicle 1-Dosed (S) Mice,"[1]; 60 mg/kg, regimen S",73%
same,IL-13: Mean % Cytokine Concentration in DNFB Treated Right Ears versus Vehicle 1-Dosed (S) Mice,"[1]; 60 mg/kg, regimen S",75%
same,IL-17A: Mean % Cytokine Concentration in DNFB Treated Right Ears versus Vehicle 1-Dosed (S) Mice,"[1]; 60 mg/kg, regimen S",38%
same,KC: Mean % Cytokine Concentration in DNFB Treated Right Ears versus Vehicle 1-Dosed (S) Mice,"[1]; 60 mg/kg, regimen S",35%
same,MCP-1: Mean % Cytokine Concentration in DNFB Treated Right Ears versus Vehicle 1-Dosed (S) Mice,"[1]; 60 mg/kg, regimen S",43%
same,MIP-1α: Mean % Cytokine Concentration in DNFB Treated Right Ears versus Vehicle 1-Dosed (S) Mice,"[1]; 60 mg/kg, regimen S",57%
same,MIP-1β: Mean % Cytokine Concentration in DNFB Treated Right Ears versus Vehicle 1-Dosed (S) Mice,"[1]; 60 mg/kg, regimen S",52%
same,RANTES: Mean % Cytokine Concentration in DNFB Treated Right Ears versus Vehicle 1-Dosed (S) Mice,"[1]; 60 mg/kg, regimen S",51%
same,TNF-α: Mean % Cytokine Concentration in DNFB Treated Right Ears versus Vehicle 1-Dosed (S) Mice,"[1]; 60 mg/kg, regimen S",65%
CCOc1cc(C(=O)N[C@H]2CC[C@H](O)CC2)ccc1Nc1cc2c(cn1)N(C)C(=O)c1ccccc1N2C [Compound T62],Kd,BRD2,93 nM
